US20090054507A1, “CONTROL OF MALIGNANT CELLS BY KINASE INHIBITION” (CLEVELAND STATE UNIVERSITY, priority 2006, published 2009)

Assays:
[1] = In vivo toxicity study for DMAT; set-up: species or system mouse
Procedure: In vivo toxicity study for DMAT. A male nude mouse (without tumors) was treated with DMAT to determine a toxicity level. A saturated solution of DMAT in DMSO was inoculated daily in the neck subcutaneously (100 μl of 100 mg/ml DMAT in DMSO). Therefore this animal received 10 mg DMAT per day. After 2 weeks this animal was sacrificed and organs were collected for further analysis.

[2] = tested on: platelets from MEG-01 cells; test: Function assays of platelets released from treated MEG-01 cells; assay type: cell-based, human
Procedure: Platelets isolation from culture. Platelets were separated from the megakaryocytic cells, by differential centrifugation and analyzed separately. Suspension cells were centrifuged first at 100 g-150 g for 15 minutes, and then the platelets rich supernatant was kept and centrifuged again at 800 g for 15 minutes. For impeding artefactual aggregation of platelets in the control, EDTA and RGD or RGDS were added in the cell suspension from the beginning of the centrifugations, and with each centrifugation step. 1 mg/ml RGD or RGDS and 10 mM EDTA final concentrations, were used for negative control (inactivated) or resting platelets. Platelets were activated with different agonists: 100 nM PMA, 1 μg/ml TRAP and 0.5 U/ml human a-thrombin. For most of assays TRAP 1 μg/ml was used. For scanning electron microscopy experiment (formation of the fibrin clot) human a-thrombin was used. For both sample sets, activated (with TRAP) and inactivated (EDTA, RGD), platelets collected from MEG-01 cultures incubated with 10 μM DMAT for 4 days were utilized.
PAC-I-FITC binding due to platelet activation flow cytometric assay. Monoclonal antibody PAC-1 recognizes an epitope on the glycoprotein αIIbβ3 of activated platelets. […]
Fibrinogen-Alexa Fluor 488 binding to platelets flow cytometric assay. […] Final concentration of fibrinogen conjugated to Alexa Fluor 488 was determined spectrophotometrically. […]

WM-164 cells = test: Anchorage independence in soft agar, WM-164; assay type: cell-based, human; details: DMAT 10 μM, one week
MEG-01 cells [3] = test: Viability (proliferation) assay, Trypan blue exclusion, MEG-01; assay type: cell-based, human
MCF-7 cells = test: Annexin V apoptosis/necrosis assay, MCF-7; assay type: cell-based, human
Procedure: Apoptosis Assays using Flow Cytometry with Annexin V-FITC and propidium iodide (PI). For induction of typical apoptosis, cells were grown in the presence of 1 μM staurosporine (Sigma-Aldrich) for 6 hours. The staurosporine treated cells were stained as follows: control 1 with PI, control 2 with Annexin V-FITC and control 3 both PI and Annexin V-FITC in order to have the brightest controls for compensation and proper collection of the flow cytometry data. Cell necrosis was induced by heat shock (65° C. for 30 minutes). The stained control, both PI and Annexin V-FITC labeled, was then used as the reference in establishing the level of apoptosis induced by the treatments. Data was collected on logarithmic modes, two-colors. Annexin V-FITC corresponds to FL1 H channel, and PI to FL3H or FL2H channels.
Annexin V-FITC and PI apoptosis assay staining protocol. Apoptosis Annexin V-FITC and PI kit from BD Biosciences, CA, USA, was used. 10^5-10^6 cells were stained with 50 μg/ml PI and with 0.5 μg/ml FITC-labeled Annexin V using the staining protocol provided by the supplier. Samples were then analyzed immediately by flow cytometry.

MEG-01 cells [4] = test: Flow cytometric DNA content assay using PI/RNAse A; assay type: cell-based, human; details: 10 μM DMAT for 4 days
Procedure: Flow cytometric DNA content assessment assay using PI/RNAse A. Cells were serum starved in order to synchronize them in the GO phase. Treatment with DMAT 10 μM for a period of 4 days was performed and then cells were collected for further processing. Cells were fixed in 80% cold Ethanol/PBS added drop-wise. Before PI staining cells were washed with sterile, RNAse, DNAse free, PBS buffer. Fixed cells were incubated with 50 μg/ml PI and 100 μg/ml RNAse A-I in hypotonic citrate staining buffer for 30 minutes in dark, at room temperature.

MEG-01 cells [5] = test: Thrombocytopoiesis / proplatelet formation by microscopy; assay type: cell-based, human
Procedure: Light microscopy (phase contrast) and DAPI fluorescence microscopy. High quality pictures and live imaging were obtained at Cleveland Clinic Imaging Core (Cleveland, Ohio). DAPI staining of cultured MEG-01 cells was performed with fresh cells. For live imaging (observing a single cell for a 24 hour period of time) of the thrombocytopoiesis process, MEG-01 suspension cells were made adherent by using Fibronectin (FN) coated culture dishes. FN was used, at 5 μg/cm^2 and incubated at 37° C. for 1 h, as recommended by the supplier (BD Biosciences, Bedford, Mass., USA).
Scanning electron microscopy (SEM). Cell preparation and pictures were performed at the Microscopy Core Facility (Cleveland Clinic). Cells were grown for 4 days in the presence of 10 μM DMAT and then collected by differential centrifugation. Cells were fixed in glutaraldehyde and then further processed at the Core. The clot was prepared with platelets collected from MEG-01 cultures treated with 10 μM DMAT. Human thrombin 0.5 U/ml for 15 minutes was used to activate them.

[6] = 200 mg/kg per day DMAT (in DMSO), subcutaneous in the neck, 2 weeks

CN(C)c1nc2c(Br)c(Br)c(Br)c(Br)c2[nH]1 [DMAT, 2-dimethylamino-4,5,6,7-tetrabromo-1H-benzimidazole]
histological analyses of all organs vs control animal (not injected) ([1]; 10 mg/day/animal for 2 weeks): did not show any difference
behavior [1, 6]: generally normal behavior
liver size [1, 6]: appeared to have increased in size
injection site ([1]; 200 mg/kg per day DMAT (in DMSO), subcutaneous in the neck, 2 weeks, male athymic nude mouse): irritated and swollen like a cyst
fibrin clot formation by platelets from treated MEG-01 cells ([2]; DMAT 10 μM at 72 hours, human thrombin 0.5 U/ml): form a fibrin clot
function of platelets obtained from treated MEG-01 cells ([2]; response to human thrombin 0.5 U/ml): functional
colonies in soft agar (WM-164 cells): much smaller and fewer colonies
proliferation of MEG-01 cells (Trypan Blue exclusion) (MEG-01 cells [3]; 25 μM DMAT, compared with 5 nM PMA): level of decrease was similar
cell number / proliferation rate of MEG-01 cells (MEG-01 cells [3]; 50 μM DMAT, 4 days of treatment): maintained a steady number of cells
level of apoptotic cells (MCF-7 cells; 10 μM DMAT, 24 hours): 28.4%
level of necrotic cells (MCF-7 cells; 10 μM DMAT, 24 hours): 8.7%
level of apoptotic cells (MCF-7 cells; 20 μM DMAT): 49.0%
level of necrotic cells (MCF-7 cells; 20 μM DMAT): 7.8%
DNA content (ploidy) (MEG-01 cells [4]): become polyploid (ploidy higher than 2N)
thrombocytopoiesis (MEG-01 cells [5]): induced thrombocytopoiesis
proplatelet formation (MEG-01 cells [5]; 10 μM DMAT, as early as from the second day): form proplatelet extensions
